Laboratory results from US20140221207A1, “ISOLATED BACTERIAL STRAIN OF THE GENUS BURKHOLDERIA AND PESTICIDAL METABOLITES THEREFROM- FORMULATIONS AND USES” (MARRONE BIO INNOVATIONS, INC., priority 2011, published 2014).
Like-named read-outs stand apart in the source and are kept apart here.

Columns and labels:
[1] = system: radish plants; test: Whole plant herbicidal bioassay on radish; format: in vivo; parameters: Control, Day-1 Reading, Replicate 1 / Control, Day-1 Reading, Replicate 2 / Control, Day-1 Reading, Replicate 3 / Control, Day-1 Reading, AVG / Control, Day-7 Reading, Replicate 1 / Control, Day-7 Reading, Replicate 2 / Control, Day-7 Reading, Replicate 3 / Control, Day-7 Reading, AVG: scale not given here; details: 10 mg/ml; for Control, Day-1 Reading, AVG / Control, Day-1 Reading, Replicate 1 / Control, Day-1 Reading, Replicate 2 / Control, Day-1 Reading, Replicate 3 / Control, Day-7 Reading, AVG / Control, Day-7 Reading, Replicate 1 / Control, Day-7 Reading, Replicate 2 / Control, Day-7 Reading, Replicate 3: foliar spray
Protocol: Healthy radish plants with two to three true leaves were selected for testing. The radish plants are 13 days old at treatment. The plants are sorted so that all treatments are equivalent in foliage surface area and plant height. The pots are labeled with treatment number and repetition number. Three repetitions per treatment are tested.
Ten fractions of MBI-206 formulated product are tested. The fractions are at a concentration of 10 mg/ml. The crude extracts of the formulated product and broth are also tested. An untreated control (treated with deionized water) and a positive control (RoundUp Super Concentrate at a rate of 2.5 fluid ounces per gallon) are included in the test.
All products and treatments are well shaken prior to application. Treatments are applied using a nozzle from a 2-ounce spray bottle. Separate spray nozzles were used for each treatment. […] Two milliliters of each treatment are sprayed simultaneously over the three repetitions of each treatment so that each plant is treated with approximately 0.67 milliliters of treatment solution.
The plants are allowed to air dry and are then randomized in holding trays. Each tray is labeled with the experiment name and treatment date and placed on the laboratory greenhouse shelves. The laboratory greenhouse maintains a temperature of 70-80° F. and a relative humidity of 30-40%. Throughout the bioassay, plants are watered from below by filling the holding trays with an appropriate amount of water so that plant foliage remained dry.
Symptoms included foliage burning and plant stunting. The following rating scale, shown in Table 4 is used to quantify efficacy. Ratings are determined by observing the following factors relative to the plants of the untreated control: overall plant health, average plant height, and foliage health. Symptoms of affected plants may include discolored/spotted/burnt/bleached foliage, warped/twisted/curled leaves, side branching (due to damaged apical meristem), plant dieback, or death.
The pure compounds (butyl paraben [MBI206-FP-F5H32] and hexyl paraben [MBI206-FP-F5H40]) obtained from fraction 5 were tested at a concentration of 10 mg/ml. An untreated control (treated with deionized water), the formulation blank (at 3% v/v & 10% v/v), and a positive control (RoundUp Super Concentrate at a rate of 2.5 fluid ounces per gallon) are included in the test.

[2] = system: M. incognita and M. hapla; test: In vitro 96-well nematode immobility bioassay, mean of trials T1 and T2; format: in vivo; details: 3 μl of 20 mg/ml to 50 μl, 24 hour, 25° C
Protocol: (§1) The pure sample of butyl paraben and hexyl paraben was used in an in vitro 96-well plastic cell-culture plate bioassay. 15-20 nematodes in a 50 μl water solution were exposed to 3 μl of a 20 mg/ml peak concentrate for a 24 hour period at 25° C. Once the incubation period was completed, results were recorded based on a visual grading of immobility of the juvenile nematodes (J2's) in each well treated with compounds; each treatment was tested in replicate of 4 wells. […] Three controls are included in each trial; 1 positive (1% Avid) & 2 negative (DMSO & water). Trials (T1) was carried out using M. incognita nematodes and trail (T2) was carried out using M. hapla nematodes, the samples were dissolved in 100% DMSO.

[3] = system: M. incognita; test: In vitro 96-well nematode immobility bioassay, trial T1; format: in vivo; details: 3 μl of 20 mg/ml to 50 μl, 24 hour, 25° C
Protocol: as §1

[4] = system: Beet Armyworm (Spodoptera exigua); test: 96-well diet overlay assay with 1st instar Beet Armyworm larvae; format: in vivo; details: for mortality at 40 µg/disc: Spodoptera exigua
Protocol: The insecticidal activity of butyl paraben (MBI206-FP-F5H32) and hexyl paraben (MBI206-FP-F5H40) were tested in a laboratory assay using a 96-well diet overlay assay with 1st instar Beet Armyworm (Spodoptera exigua) larvae using microtiter plates with 200 ul of solid, artificial Beet Armyworm diet in each well. One hundred (100) microliters of each test sample (containing 40 ug of sample) is pipetted on the top of the diet (one sample in each well), and the sample is let dry under flowing air until the surface is dry. Each sample was tested in six replicates, and water and a commercial Dipel product are used as negative and positive controls, respectively. One first instar larvae of the test insect (Beet armyworm—Spodoptera exigua) was placed in each well, and the plate was covered with plastic cover with airholes. The plates with insects were incubated at 26° C. for 6 days with daily mortality evaluations.

[5] = system: M. hapla; test: In vitro 96-well nematode immobility bioassay, trial T2; format: in vivo; details: 3 μl of 20 mg/ml to 50 μl, 24 hour, 25° C
Protocol: as §1

[6] = system: Lygus hesperus; test: 12 well plate treated green beans bioassay, Lygus hesperus late 2nd/early 3rd instar; format: in vivo; details: Lygus hesperus; green beans dipped in 0.25 mg/mL; scored at 24, 48 and 120 hours
Protocol: The insecticidal activity of the four compounds, templamide A, templamide B, FR901465 & FR901228 isolated from Burkholderia were tested in a laboratory assay using a 12 well plate with treated green beans bioassay system. The compound was dissolved in 100% ethanol to concentrations of […] and 500 μL of this sample was added to 3.5 mL of water to make a total volume of 4 mL containing 0.25 mg/mL concentration of the compound. Green beans were washed earlier in bleach solution and then sat in water to rinse. Beans were dried before using and then were cut with scissors to fit into wells of 12-well plate. With the help of forceps the beans were dunked into a 15 mL plastic falcon tube containing each treatment and then submerged in treatment for exactly one min. one bean part was put into each well and then individual late 2nd/early 3rd instar Lygus hesperus, were placed in wells with help of brush. Plate sealer was used to cover tray and hole poked into the plate sealer for aeration. The numbers of Lygus/well were counted and plates were placed on brench top. Larvae were scored at 24, 48 and 120 hours after application. […] The positive control used in this testing was Avid (Avemectin) at the rate of 13 μL/10 mL.

[7] = system: Chlamydomonas reinhardtii; test: Control of Chlamydomonas reinhardtii by purified compounds, fluorescence at 680 nm; format: cell-based; details: 72 hours
Protocol: Purified compounds from Burkholderia sp. fermentation broth was tested for algaicidal activity against Chlamydomonas reinhardtii. An increasing volume of the purified compounds (20 mg/mL in ethanol) was added to a clear 48 well polystyrene plate with 750 micro liters of the specified algae growing. Each treatment was done in two replicates and the solvent used as a negative control. The plate was closed with a lid and incubated for 72 hours under constant light at room temperature. After 72 hours the fluorescence (at 680 nm) of the suspension in each well was measured using a SpectraMax M2 plate reader, and the reduction in fluorescence compared with the negative control was converted into percent control of algal growth. Each sample was visually compared to the negative control; a well that was visually clearer than the negative control was scored as active. […] Tests were run in two replicates and %. Control was calculated as a reduction of fluorescence at 680 nm compared with the negative control. Each sample was visually compared to the negative control; a well that was visually clearer than the negative control was scored as active.

[8] = system: milkweed bugs (Oncopeltus fasciatus); test: Sucking contact bioassay on milkweed bugs; format: in vivo; details: 1 μL of 1 mg/mL in ethanol onto abdomen of 4th instar; scored at 4 and 7 day
Protocol: The insecticidal activity of the pure compounds templamide B (MBI 206; MW 537), FR 901465 (MBI 206; MW 523) and FR901228 (MBI 206; MW 540) were tested in a laboratory assay using a sucking contact bioassay system. The compounds were dissolved in 100% ethanol to concentrations of 1 mg/mL. Individual 4th instar milkweed bugs, penultimate nymph, larvae were placed in 5C Rubbermaid container with 2 sunflower seeds in each tub and 1 water cup (water in contact cup with cotton wick) into each tub. A Hamilton Micropipette was used to apply 1 μL (1 drop) of compound onto abdomen of milkweed bugs (MWB) of each larvae. Tubs were place into the Rubbermaid container and cap with mesh lid. Eight larvae per sample were treated. The assay was incubated at 25° C., 12 h light/12 h dark. Larvae were scored at 4 and 7 day after application. […] Thus, FR 901465 provided a better (87.5%) control of milkweed bugs, than FR 901228 (MW 540) and templamide B (FIG. 4).

[9] = system: Free living nematodes (FLN); test: In vitro 96-well nematode immobility bioassay of FR901228, trial T1; format: in vivo; details: 3 μl of 20 mg/ml to 50 μl, 24 hour, 25 C
Protocol: (§2) The pure sample of FR 901228 was tested using an in vitro 96-well plastic cell-culture plate bioassay. 15-20 nematodes in a 50 μl water solution were exposed to 3 μl of a 20 mg/ml solution of FR 901228 for a 24 hour period at 25 C. Once the incubation period was completed, results were recorded based on a visual grading of immobility of the juvenile nematodes (J2's) in each well treated with compounds; each treatment was tested in replicate of 4 wells. Three controls are included in each trial; 1 positive (1% Avid) & 2 negative (DMSO & water). Trials (T1) was carried out using Free living nematodes (FLN) and trail (T2) was carried out using M. incognita nematodes, the samples were dissolved in 100% DMSO.

[10] = system: M. incognita; test: In vitro 96-well nematode immobility bioassay of FR901228, trial T2; format: in vivo; details: 3 μl of 20 mg/ml to 50 μl, 24 hour, 25 C
Protocol: as §2

[11] = 72 h, read-out: Insecticidal bioassay data (mortality), Day 3
[12] = 96 h, read-out: Insecticidal bioassay data (mortality), Day 4
[13] = 5 μL of sample (20 mg/mL in ethanol) per 750 μL of algae
[14] = 5 μL of sample per 750 μL of algae
[15] = 11 μL of sample (20 mg/mL in ethanol) per 750 μL of algae
[16] = 11 μL of sample per 750 μL of algae
[17] = 22.5 μL of sample (20 mg/mL in ethanol) per 750 μL of algae
[18] = 22.5 μL of sample per 750 μL of algae, well visually clearer than negative control scored as active

| Compound | Control, Day-1 Reading, AVG [1] | Control, Day-1 Reading, Replicate 1 [1] | Control, Day-1 Reading, Replicate 2 [1] | Control, Day-1 Reading, Replicate 3 [1] | Control, Day-7 Reading, AVG [1] | Control, Day-7 Reading, Replicate 1 [1] | Control, Day-7 Reading, Replicate 2 [1] | Control, Day-7 Reading, Replicate 3 [1] | Mean % immobility [2] [%] | % immobility (trial # T1) [3] [%] | immobility against M. incognita [3] [%] | mortality at 40 µg/disc [4, 11] [%] | mortality at 40 µg/disc [4, 12] [%] | % immobility (trial # T2) [5] [%] | mortality at 250 µg/mL [6] [%] | % Control [7, 13] [%] | Visual [7, 14] | % Control [7, 15] [%] | Visual [7, 16] | % Control [7, 17] [%] | also measured |
| --- | --- | --- | --- | --- | --- | --- | --- | --- | --- | --- | --- | --- | --- | --- | --- | --- | --- | --- | --- | --- | --- |
| CCCCCCOC(=O)c1ccc(O)cc1 [Hexyl paraben, hexyl paraben] | 75.0 | 75 | 75 | 75 | 87.5 | 87.5 | 87.5 | 87.5 | 93.75 | 87.5 | 93.75 | 50 | 70.8 | 100 | – | – | – | – | – | – | herbicidal potency in words ([1]; compared with butyl paraben): most potent herbicidal compound |
| CCCCOC(=O)c1ccc(O)cc1 [Butyl paraben, butyl paraben] | 18.3 | 25 | 5 | 25 | 24.2 | 25 | 10 | 37.5 | 81.25 | 75 | 81.25 | 8.93 | 8.93 | 87.5 | – | – | – | – | – | – | mortality ([4]; 40 ug of sample per well, text summary of Table 7): 9% |
| CC(=O)OC(C)/C=C\C(=O)NC1CC(C)C(C/C=C(C)/C=C/C2OC(C)(O)C(O)C3(CO3)C2O)OC1C (centres unmarked) [FR901465] | – | – | – | – | – | – | – | – | – | – | – | – | – | – | 91.2 | −86.58 | Not Active | −33.58 | Not Active | −3.887 | Visual [7, 18]: Not Active; control of milkweed bugs [8]: 87.5% |
| C/C=C1\NC(=O)[C@H]2CSSCC/C=C/[C@H](CC(=O)N[C@H](C(C)C)C(=O)N2)OC(=O)[C@H](C(C)C)NC1=O [FR901228] | – | – | – | – | – | – | – | – | – | – | – | – | – | – | 51.7 | 89.48 | Active | 99.36 | Active | 98.71 | Visual [7, 18]: Active; immobility [9]: 75%; immobility [10]: 75% |
